Source: PMC6681697, “One-Step ^18F-Labeling and Preclinical Evaluation of Prostate-Specific Membrane Antigen Trifluoroborate Probes for Cancer Imaging” (Journal of Nuclear Medicine, 2019)

Assays:
PSMA = target: T1, PSMA (Homo sapiens, UniProt Q04609); assay: In vitro competition binding assay on LNCaP cells with ^18F-DCFPyL as radioligand; settings: LNCaP cells, 0.1 nM ^18F-DCFPyL radioligand, 1 h at 37°C; n = 3
T1 construct: because it expresses PSMA endogenously and is commonly used to evaluate PSMA-targeting radiotracers; endogenous in cells; host or cells: LNCaP cells
T1 sequence (Q04609 whole entry): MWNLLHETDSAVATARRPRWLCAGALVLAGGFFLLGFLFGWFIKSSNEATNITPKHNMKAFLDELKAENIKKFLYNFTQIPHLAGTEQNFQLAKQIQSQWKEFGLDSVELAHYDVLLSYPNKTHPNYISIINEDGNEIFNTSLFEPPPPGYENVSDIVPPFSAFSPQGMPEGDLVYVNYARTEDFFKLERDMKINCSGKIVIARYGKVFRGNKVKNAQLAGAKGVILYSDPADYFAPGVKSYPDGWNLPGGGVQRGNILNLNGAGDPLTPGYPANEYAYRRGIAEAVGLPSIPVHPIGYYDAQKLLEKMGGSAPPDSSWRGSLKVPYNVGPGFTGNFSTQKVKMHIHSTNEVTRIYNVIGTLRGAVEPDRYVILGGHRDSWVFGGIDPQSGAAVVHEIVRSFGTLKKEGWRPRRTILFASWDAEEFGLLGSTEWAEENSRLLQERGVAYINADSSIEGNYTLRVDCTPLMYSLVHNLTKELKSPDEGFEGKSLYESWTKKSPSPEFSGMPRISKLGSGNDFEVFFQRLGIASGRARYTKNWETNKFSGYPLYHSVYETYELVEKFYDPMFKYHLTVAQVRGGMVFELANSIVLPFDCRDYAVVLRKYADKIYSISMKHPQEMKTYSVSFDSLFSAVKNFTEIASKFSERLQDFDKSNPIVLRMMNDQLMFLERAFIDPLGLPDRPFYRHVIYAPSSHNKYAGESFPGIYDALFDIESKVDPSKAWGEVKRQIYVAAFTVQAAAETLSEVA
How it was run: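 Ki values derive from one-site competition fits of γ-counted, cell-associated radioactivity. Cells were washed cold, then harvested by trypsin.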

LNCaP xenografts [1] = assay: PET/CT imaging of LNCaP tumor-bearing mice; format: in vivo; settings: 1 h after injection
Protocol: Imaging and biodistribution experiments were performed using NODSCID IL2RγKO male mice. All experiments were conducted according to the guidelines established by the Canadian Council on Animal Care and approved by the Animal Ethics Committee of the University of British Columbia. Mice were anesthetized by inhalation with 2% isoflurane in oxygen and implanted subcutaneously with 1 × 10^7 LNCaP cells behind the left shoulder. The mice were imaged or used in biodistribution studies once the tumor reached 5–8 mm in diameter (5–6 wk).
PET imaging experiments were conducted using an Inveon preclinical PET/CT scanner (Siemens). Compounds ^18F-1,2,3,5,7, and 8 were formulated in 10% ethanol/normal saline, whereas ^18F-4 and 6 were formulated in 10% ethanol/phosphate-buffered saline. […] For blocking controls, the mice were coinjected with DCFPyL (0.5 mg). After injection, the mice were allowed to recover and roam freely in their cage. After 50 min, the mice were sedated by 2% isoflurane inhalation and positioned in the scanner. A CT scan was performed first for localization and attenuation correction. This was followed by a 10-min static PET scan. The mice were kept warm by a heating pad during image acquisition. […]

[2] = Distribution coefficient (LogD7.4), shake flask method; format: physicochemical; settings: n-octanol / phosphate buffer 0.1 M pH 7.4; n = 3
How it was run: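 ^18F-labeled tracer partitioned between n-octanol and 0.1 M phosphate buffer pH 7.4, vortexed 2 min, centrifuged 3,000g for 10 min. Both phases counted by γ-counter; LogD7.4 taken as log10 of octanol/buffer count ratio.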

LNCaP xenografts [3] = assay: Ex vivo biodistribution and blocking studies in mice bearing LNCaP xenografts; settings: for tumor uptake: LNCaP tumor
How it was run: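 Male NODSCID IL2RγKO mice carried subcutaneous LNCaP tumours (1 × 10^7 cells, 5–8 mm) and received 1–3 MBq radiotracer, unblocked or blocked. Organs and blood taken at 60 min were weighed and γ-counted, giving %ID/g; blocked and unblocked groups were compared by multiple t tests.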

[4] = 1 h blocked (coinjection of DCFPyL 0.5 mg)

With `C[N+](C)(Cc1cn(CC(=O)N[C@@H](CCC(=O)O)C(=O)NCCCC[C@H](NC(=O)[C@H](CCC(=O)O)NC(=O)Cn2cc(C[N+](C)(C)C[B-](F)(F)F)nn2)C(=O)NC[C@H]2CC[C@H](C(=O)N[C@@H](Cc3ccc4ccccc4c3)C(=O)NCCCC[C@H](NC(=O)N[C@@H](CCC(=O)O)C(=O)O)C(=O)O)CC2)nn1)C[B-](F)(F)F` [^18F-8] the Ki (PSMA) was 0.22 ± 0.01 nM, the “accumulation in the liver” value (LNCaP xenografts [1]; PET/CT) was “no significant accumulation in the liver” and the “clearance / excretion pathway” value (LNCaP xenografts [1]; imaging and biodistribution) was “no hepatobiliary excretion”. For the same compound, the LogD7.4 [2] was −3.58 ± 0.36, the “T/B (tumor-to-blood ratio)” value (LNCaP xenografts [3]; 1 h after injection, unblocked) was 30.95 ± 7.76 and the “T/K (tumor-to-kidney ratio)” value (LNCaP xenografts [3]; 1 h after injection, unblocked) was 0.14 ± 0.07. The “T/M (tumor-to-muscle ratio)” value (LNCaP xenografts [3]; 1 h after injection, unblocked) was 67.23 ± 25.93, the adrenal uptake (LNCaP xenografts [3]; 1 h after injection, unblocked) was 7.72 ± 2.70 %ID/g and the blood uptake (LNCaP xenografts [3]; 1 h after injection, unblocked) was 0.56 ± 0.11 %ID/g. The bone uptake (LNCaP xenografts [3]; 1 h after injection, unblocked) was 0.25 ± 0.10 %ID/g, the brain uptake (LNCaP xenografts [3]; 1 h after injection, unblocked) was 0.02 ± 0.00 %ID/g and the fat uptake (LNCaP xenografts [3]; 1 h after injection, unblocked) was 0.80 ± 0.28 %ID/g. It also gave a heart uptake (LNCaP xenografts [3]; 1 h after injection, unblocked) of 0.28 ± 0.07 %ID/g, an intestine uptake (LNCaP xenografts [3]; 1 h after injection, unblocked) of 0.32 ± 0.06 %ID/g and a kidney uptake (LNCaP xenografts [3]; 1 h after injection, unblocked) of 143.85 ± 61.73 %ID/g. The liver uptake (LNCaP xenografts [3]; 1 h after injection, unblocked) was 0.20 ± 0.05 %ID/g, the lung uptake (LNCaP xenografts [3]; 1 h after injection, unblocked) was 1.97 ± 0.34 %ID/g and the muscle uptake (LNCaP xenografts [3]; 1 h after injection, unblocked) was 0.27 ± 0.06 %ID/g. It also gave a pancreas uptake (LNCaP xenografts [3]; 1 h after injection, unblocked) of 0.46 ± 0.15 %ID/g, a spleen uptake (LNCaP xenografts [3]; 1 h after injection, unblocked) of 6.47 ± 2.17 %ID/g and a stomach uptake (LNCaP xenografts [3]; 1 h after injection, unblocked) of 0.11 ± 0.03 %ID/g. For the same compound, the testes uptake (LNCaP xenografts [3]; 1 h after injection, unblocked) was 0.57 ± 0.12 %ID/g, the “tumor uptake compared with ^18F-DCFPyL” value (LNCaP xenografts [3]; 1 h after injection, 1-way ANOVA, Dunnett test) was “higher uptake” and the “T/B (tumor-to-blood ratio)” value (LNCaP xenografts [3]; [4]) was 0.92 ± 0.24. For the same compound, the “T/K (tumor-to-kidney ratio)” value (LNCaP xenografts [3]; [4]) was 0.17 ± 0.04, the “T/M (tumor-to-muscle ratio)” value (LNCaP xenografts [3]; [4]) was 3.07 ± 0.92 and the adrenal uptake (LNCaP xenografts [3]; [4]) was 0.14 ± 0.03 %ID/g. The blood uptake (LNCaP xenografts [3]; [4]) was 0.39 ± 0.07 %ID/g, the bone uptake (LNCaP xenografts [3]; [4]) was 0.15 ± 0.02 %ID/g and the brain uptake (LNCaP xenografts [3]; [4]) was 0.01 ± 0.00 %ID/g. It also gave a fat uptake (LNCaP xenografts [3]; [4]) of 0.06 ± 0.02 %ID/g, a heart uptake (LNCaP xenografts [3]; [4]) of 0.13 ± 0.01 %ID/g and an intestine uptake (LNCaP xenografts [3]; [4]) of 0.26 ± 0.05 %ID/g. The kidney uptake (LNCaP xenografts [3]; [4]) was 2.19 ± 0.44 %ID/g, the liver uptake (LNCaP xenografts [3]; [4]) was 0.16 ± 0.04 %ID/g and the lung uptake (LNCaP xenografts [3]; [4]) was 0.33 ± 0.06 %ID/g. It also gave a muscle uptake (LNCaP xenografts [3]; [4]) of 0.13 ± 0.06 %ID/g, a pancreas uptake (LNCaP xenografts [3]; [4]) of 0.09 ± 0.03 %ID/g and a spleen uptake (LNCaP xenografts [3]; [4]) of 0.12 ± 0.04 %ID/g. For the same compound, the stomach uptake (LNCaP xenografts [3]; [4]) was 0.09 ± 0.04 %ID/g, the testes uptake (LNCaP xenografts [3]; [4]) was 0.18 ± 0.09 %ID/g and the tumor uptake (LNCaP xenografts [3]; 1 h after injection, unblocked, listed as 8) was 16.7 ± 2.7 %ID/g. The tumor uptake (LNCaP xenografts [3]; 1 h after injection, unblocked, listed as [18F]8) was 16.66 ± 2.74 %ID/g and the tumor uptake (LNCaP xenografts [3]; [4]) was 0.35 ± 0.03 %ID/g.
